This is an account of results in US5089516A, “1-phenyl-3,5-pyrazolidinedione hydroxystyrene compounds which have tyrosine kinase inhibiting activity” (Kanegafuchi Kagaku Kogyo Kabushiki Kaisha, priority 1987, dated 1992).

In one test the target is T1, 5-lipoxygenase (Cavia porcellus, UniProt A0A286X958).
T1 construct: The cytosol fraction was used as an enzyme solution; from tissue; host or cells: peritoneal exudate cells of casein-injected Hartley guinea pigs, 105,000×g cytosol
T1 sequence (A0A286X958 1-674): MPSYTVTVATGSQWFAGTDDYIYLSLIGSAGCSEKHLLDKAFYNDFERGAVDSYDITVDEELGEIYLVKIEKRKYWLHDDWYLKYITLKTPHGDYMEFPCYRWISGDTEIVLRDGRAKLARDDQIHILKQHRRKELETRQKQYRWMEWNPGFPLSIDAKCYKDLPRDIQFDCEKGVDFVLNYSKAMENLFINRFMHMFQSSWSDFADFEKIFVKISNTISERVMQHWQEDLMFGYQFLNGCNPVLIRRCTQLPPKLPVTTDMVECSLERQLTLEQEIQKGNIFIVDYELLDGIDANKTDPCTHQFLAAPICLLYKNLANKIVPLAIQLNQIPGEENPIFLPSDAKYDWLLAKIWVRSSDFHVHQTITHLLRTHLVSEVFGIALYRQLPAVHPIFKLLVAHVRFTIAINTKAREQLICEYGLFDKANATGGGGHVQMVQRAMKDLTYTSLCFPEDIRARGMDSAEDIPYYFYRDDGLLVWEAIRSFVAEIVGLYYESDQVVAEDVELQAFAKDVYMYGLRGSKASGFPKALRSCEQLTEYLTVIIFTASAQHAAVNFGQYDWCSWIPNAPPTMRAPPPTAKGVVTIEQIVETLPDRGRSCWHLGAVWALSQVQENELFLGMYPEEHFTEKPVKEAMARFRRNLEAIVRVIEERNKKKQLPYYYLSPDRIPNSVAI
Kind of test: 5-Lipoxygenase inhibiting activity (5-HETE formation, cytosol of peritoneal exudate cells). Type of test: biochemical, Hartley guinea pigs. The note with it: read-out: Inhibition rate (5-lipoxygenase); for inhibition at 10 µM: 10 μM in the reaction mixture; for inhibition at 1 µM: 1 μM in the reaction mixture. The procedure, abridged:
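Enzyme source: cytosol (105,000×g supernatant) of casein-elicited guinea pig peritoneal exudate cells, preincubated 5 min at 30 °C with compound (2% ethanol final), 1 mM CaCl2, 1 mM GSH, 2 mM ATP, then 5 min with 20 μM [1-14C]arachidonic acid. 5-HETE separated by TLC, counted by scintillation; % inhibition versus ethanol control.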

The target in test [1] is T2, epidermal growth factor receptor-tyrosine kinase complex (Homo sapiens, UniProt P00533).
T2 construct: The membrane preparation was employed in the following measurement without solubilization; endogenous in cells; host or cells: A-431 (ATCC CRL1555), membrane preparation, not solubilized
T2 sequence (P00533 25-1210, one chain of several): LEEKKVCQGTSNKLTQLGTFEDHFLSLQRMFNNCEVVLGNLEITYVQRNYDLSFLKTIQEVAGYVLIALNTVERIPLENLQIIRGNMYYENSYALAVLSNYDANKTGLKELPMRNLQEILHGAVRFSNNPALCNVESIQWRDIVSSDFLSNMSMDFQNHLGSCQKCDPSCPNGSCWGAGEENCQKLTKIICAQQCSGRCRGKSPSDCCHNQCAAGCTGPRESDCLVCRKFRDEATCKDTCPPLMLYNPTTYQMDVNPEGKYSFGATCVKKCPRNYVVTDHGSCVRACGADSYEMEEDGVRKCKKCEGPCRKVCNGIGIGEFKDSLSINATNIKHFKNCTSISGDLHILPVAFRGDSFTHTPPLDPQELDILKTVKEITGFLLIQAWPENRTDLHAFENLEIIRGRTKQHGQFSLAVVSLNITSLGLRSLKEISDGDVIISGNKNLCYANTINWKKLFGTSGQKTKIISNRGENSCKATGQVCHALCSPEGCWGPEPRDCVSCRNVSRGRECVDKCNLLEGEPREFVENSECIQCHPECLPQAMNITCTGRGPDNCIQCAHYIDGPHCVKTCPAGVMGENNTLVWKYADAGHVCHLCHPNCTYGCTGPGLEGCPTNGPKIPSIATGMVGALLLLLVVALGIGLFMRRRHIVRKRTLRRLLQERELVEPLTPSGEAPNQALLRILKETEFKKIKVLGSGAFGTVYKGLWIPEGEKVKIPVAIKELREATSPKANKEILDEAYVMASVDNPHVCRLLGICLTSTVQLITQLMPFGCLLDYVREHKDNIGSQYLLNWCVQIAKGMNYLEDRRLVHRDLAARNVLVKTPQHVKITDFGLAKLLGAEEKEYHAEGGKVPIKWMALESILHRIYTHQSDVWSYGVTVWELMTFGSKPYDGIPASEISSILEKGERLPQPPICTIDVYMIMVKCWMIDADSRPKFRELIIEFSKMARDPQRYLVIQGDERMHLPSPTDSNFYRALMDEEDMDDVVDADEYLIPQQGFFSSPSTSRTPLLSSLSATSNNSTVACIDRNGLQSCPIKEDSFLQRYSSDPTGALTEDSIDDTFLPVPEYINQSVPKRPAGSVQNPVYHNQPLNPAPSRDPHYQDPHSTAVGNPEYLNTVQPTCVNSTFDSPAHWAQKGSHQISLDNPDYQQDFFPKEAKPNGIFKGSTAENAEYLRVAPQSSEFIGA
Kind of test: Tyrosine kinase inhibiting activity (A-431 membrane preparation, EGF-stimulated). The conditions noted are these: read-out: Tyrosine kinase inhibition rate; for inhibition at 1 µM: 1 μM in the reaction mixture; for inhibition at 10 µM: 10 μM in the reaction mixture. The test is classed as biochemical. The procedure, abridged: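 Unsolubilized A-431 membranes (10 μg protein) in 20 mM HEPES pH 7.4 with 1 mM MnCl2 were preincubated with compound (DMSO) 5 min at 0° C, stimulated with 100 ng EGF 15 min, then phosphorylated with [γ-32P]ATP 15 min at 0° C. TCA-precipitated radioactivity on filter counted; inhibition % calculated against no-EGF and no-compound controls.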

In general, inhibition refers to the change of the read-out against control, counted positive when it falls. Regarding `O=C1NC(=S)SC1=Cc1cc(Cc2ccccc2)c(O)c(Cc2ccccc2)c1` [Compound 2], on 5-lipoxygenase, the inhibition at 10 µM amounted to 78%. In test [1], the inhibition at 1 µM came out at 20%.
In the case of `O=C1NC(=S)SC1=Cc1cc(O)c(O)c(CSc2ccccc2)c1` [Compound 7], the inhibition at 1 µM at 5-lipoxygenase is 88%. The inhibition at 10 µM in test [1] turned out to be 59%.
Taken in the same sequence, the figures for `O=C1NC(=S)SC1=Cc1cc(CSc2ccccc2)c(O)c(OCc2ccccc2)c1` [Compound 8] were 61% and 69%.
For the molecule `CCCCOc1cc(C=C2SC(=S)NC2=O)cc(CSc2ccccc2)c1O` [Compound 9], at 5-lipoxygenase, the inhibition at 1 µM is 91%. For the same molecule, the inhibition at 10 µM in test [1] worked out at 50%.
On to `CCCCOc1cc(C=C2SC(=S)NC2=O)cc(Cc2ccccc2)c1O` [Compound 10], for which the results for the inhibition at 1 µM (on 5-lipoxygenase; in test [1]) were 23% and 40%, respectively.
Regarding `O=C1Nc2ccccc2C1=Cc1cc(O)c(O)c(CSc2ccccc2)c1` [Compound 11], on 5-lipoxygenase, the inhibition at 1 µM was 87%. Besides, the inhibition at 10 µM in test [1] amounted to 52%.
Take `O=C1NN(c2ccccc2)C(=O)C1=Cc1cc(Cc2ccccc2)c(O)c(Cc2ccccc2)c1` [Compound 20]: at 5-lipoxygenase, the inhibition at 10 µM stood at 83%. The inhibition at 1 µM in test [1] was found to be 46%.
For the molecule `O=C1NN(c2ccccc2)C(=O)C1=Cc1cc(O)c(O)c(Cc2ccccc2)c1` [Compound 24], the inhibition at 1 µM came out at 48% on 5-lipoxygenase and 37% in test [1].
As to `O=C1N=C(NCc2ccccc2)SC1=Cc1cc(Cc2ccccc2)c(O)c(Cc2ccccc2)c1` [Compound 26], the inhibition at 1 µM on 5-lipoxygenase was determined as 84%. In addition, the inhibition at 10 µM in test [1] turned out to be 62%.
The like results for `O=C1N=C(NCc2cccs2)SC1=Cc1cc(CSc2ccccc2)c(O)c(OCc2ccccc2)c1` [Compound 31] were, in that order, 49% and 41%.
As for `CC(C)c1cc(C=C2SC(NCc3ccccc3)=NC2=O)cc(C(C)C)c1O` [Compound 33], the inhibition at 10 µM worked out at 82% on 5-lipoxygenase and 69% in test [1].
As for `CC(C)c1cc(C=C2SC(NCc3ccc(F)cc3)=NC2=O)cc(C(C)C)c1O` [Compound 35], on 5-lipoxygenase, the inhibition at 10 µM was 89%. Besides, in test [1], the inhibition at 1 µM was 70%.
In the case of `CC(C)c1cc(C=C2SC(NCc3ccc(Cl)c(Cl)c3)=NC2=O)cc(C(C)C)c1O` [Compound 37], the inhibition at 10 µM at 5-lipoxygenase was found to be 89%; in test [1], 83%.
Taken in the same sequence, the figures for `Cc1ccc(CNC2=NC(=O)C(=Cc3cc(C(C)C)c(O)c(C(C)C)c3)S2)cc1` [Compound 39] were 87% and 43%.
Taken in the same sequence, the figures for `CC(C)c1cc(C=C2SC(NCc3ccc(S(N)(=O)=O)cc3)=NC2=O)cc(C(C)C)c1O` [Compound 41] were 89% and 70%.
For the molecule `CC(C)c1cc(C=C2SC(NCc3ccc(N)cc3)=NC2=O)cc(C(C)C)c1O` [Compound 42], on 5-lipoxygenase, the inhibition at 10 µM is 88%. Besides, the inhibition at 1 µM in test [1] was determined as 85%.
